From US5064853A, “4(2-indolyl)2-amino-pentanedioic acids and cholecyostokinin use thereof” (Roussel Uclaf, priority 1989, dated 1991) come the findings set out here.

In assay [1] the target is T1, Central CCK receptors (Rattus norvegicus, UniProt P30553).
T1 construct: The cortices of 20 male rats weighing 150 to 200 g were removed and were ground up with a Polytron; from tissue; host or cells: rat cerebral cortex membrane homogenate
T1 sequence (P30553 1-452): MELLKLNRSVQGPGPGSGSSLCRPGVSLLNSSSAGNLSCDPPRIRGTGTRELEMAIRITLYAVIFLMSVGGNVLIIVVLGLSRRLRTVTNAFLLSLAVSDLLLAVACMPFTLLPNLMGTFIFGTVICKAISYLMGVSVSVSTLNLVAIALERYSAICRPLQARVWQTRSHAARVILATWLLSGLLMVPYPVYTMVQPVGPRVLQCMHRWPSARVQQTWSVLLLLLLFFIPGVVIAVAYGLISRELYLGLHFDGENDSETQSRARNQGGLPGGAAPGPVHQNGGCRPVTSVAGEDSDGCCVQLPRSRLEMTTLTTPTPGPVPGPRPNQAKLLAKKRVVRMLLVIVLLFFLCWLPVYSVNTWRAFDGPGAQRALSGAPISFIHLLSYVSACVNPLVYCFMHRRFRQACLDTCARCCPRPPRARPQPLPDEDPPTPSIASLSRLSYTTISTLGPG
The experiment in a line: Central receptors: 3H CCK8 binding to rat cortex homogenate. Conditions: 0.5 nM 3H CCK8, 25° C., 30 minutes, read-out: Central CCK IC50: concentration necessary to inhibit the fixed specific radioactivity by 50%. How it is done:
The cortices of 20 male rats weighing 150 to 200 g were removed and were ground up with a Polytron in 0.32M sucrose. After centrifuging, the supernatant was collected and centrifuged. The residue was suspended in 120 ml of Hepes buffer, pH 7.4, (Hepes 10 mM, NaCl 130 mM, MgCl2, 6H2 O 5 mM, bacitracine 250 mg/liter, PMSF 1 mg/liter), and re-centrifuged. The residue was taken up in 120 ml of Hepes buffer pH 7.4, and recentrifuged at 30,000 g for 30 minutes. The residue was then taken up in 500 ml of Hepes buffer pH 7.4, which enabled 240 aliquots of 2 ml of homogenate to be obtained. The incubation was carried out at 25° C. for 30 minutes in the presence of 0.5 nM of 3H CCK8 and the product to be tested (10,000 micromoles for 1 dose, or with a range of 7 doses) or cold CCK8 (10^-6 M), which was the reference product. After the homogenate aliquots were returned to 0° C., they were filtered with Whatman GF/B filters and the filtrates were washed with 3×5 ml of a Tris HCl 50 mM buffer, pH 7.4. The results are expressed in IC50 : concentration necessary to inhibit the fixed specific radioactivity by 50% in the Table below.

In assay [2] the target is T2, Peripheral CCK receptors (Rattus norvegicus, UniProt P30551).
T2 construct: The pancreases of 3 male rats weighing 150-200 g were removed and ground with a Polytron; from tissue; host or cells: rat pancreas membrane homogenate
T2 sequence (P30551 1-444): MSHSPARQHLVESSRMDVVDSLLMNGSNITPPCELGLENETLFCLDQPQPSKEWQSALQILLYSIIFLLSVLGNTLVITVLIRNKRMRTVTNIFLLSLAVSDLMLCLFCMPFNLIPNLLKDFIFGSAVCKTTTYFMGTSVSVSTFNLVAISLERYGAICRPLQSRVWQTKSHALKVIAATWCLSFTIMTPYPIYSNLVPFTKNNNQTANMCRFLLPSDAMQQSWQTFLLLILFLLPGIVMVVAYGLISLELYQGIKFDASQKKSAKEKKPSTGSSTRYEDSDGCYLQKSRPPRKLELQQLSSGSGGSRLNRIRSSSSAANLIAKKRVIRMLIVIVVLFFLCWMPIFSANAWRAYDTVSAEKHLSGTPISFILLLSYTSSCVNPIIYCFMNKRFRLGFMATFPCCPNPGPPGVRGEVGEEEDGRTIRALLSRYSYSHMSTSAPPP
The experiment in a line: Peripheral receptors: 3H CCK8 binding to rat pancreas homogenate. Conditions: 3H CCK8, 25° C., 60 minutes, read-out: Peripheral CCK IC50: concentration necessary to inhibit the fixed specific radioactivity by 50%. As to the method: The pancreases of 3 male rats weighing 150-200 g were removed and ground with a Polytron (4 grindings, speed 3, with an interval of 10 seconds between grindings) and the homogenate was filtered over a gauze, then centrifuged at 30,000 g for 30 minutes. The residue obtained was taken up in 400 volumes (.perspectiveto.600 ml) of Tris 50 mM HCl buffer, pH 7.4, containing 2 g/liter of BSA, 0.1 mM of bacitracin, 5 mM of MgCl2 and 5 mM of dithiothreitol. 2 ml of homogenate aliquots were incubated at 25° C. for 60 minutes in the presence of […] 3H CCK8 and the product to be tested (10,000 micromoles for 1 dose or with a range of 7 doses) and cold CCK8 (10^-6 M) which was the reference product. After returning to 0° C., the aliquots were filtered with Whatman GF/B filters having been previously washed in a 0.05% solution of polyethyleneimine. The filtrate was washed with 3×5 ml of Tris HCl 50 mM buffer, pH 7.4. The results are expressed in IC50 : concentration necessary to inhibit the fixed specific radioactivity by 50%. (IC50 in nanomoles).

Assay [3] relates to alimentary intake of a rat. The experiment in a line: Action on the alimentary intake of a rat. Conditions: 10 mg/kg intra-peritoneally, consumption monitored every hour for 5 hours. The format is in vivo. How it is done: The tests were carried out on groups of 5 rats weighing 250±10 g under the following conditions: the animals were placed individually in cages having a feeding trough described by FREGLY (J. Appln. Physiol., 1960, Vol. 15, p. 539) which had the advantage of avoiding the wastage of food presented when using powdered fodder. The rats were accustomed to taking their daily ration over 5 consecutive hours, drinking water being offered ad libitum. The amounts of food ingested were determined individually by weighing the feeding troughs and the consumptions were monitored every hour for 5 hours after the administration of 10 mg/kg of the compound intra-peritoneally. The amounts consumed were expressed in g/100 g of body weight per hour and the averages were compared with those obtained from the control animals by a DUNNET test.

pIC50: −log10 of the molar value.

With `Cc1ccc(C(NC(=O)[C@H](CCC(=O)O)NC(=O)c2cc3ccccc3[nH]2)c2ccc(C)cc2)cc1` [Example 2, (S)-4-[[(1H-indol-2-yl)-carbonyl]-amino]-5-[[bis-(4-methylphenyl)-methyl]-amino]-5-oxo pentanoic acid], the pIC50 in assay [1] is 6.15; in assay [2], 7.28. Besides, the “reduction of alimentary consumption relative to control animals” value in assay [3] is 15%.

Consider `O=C(O)CC[C@H](NC(=O)c1cc2ccccc2[nH]1)C(=O)NC(c1ccc(Cl)cc1)c1ccc(Cl)cc1` [Example 4, (S)-5-[[bis-(4-chlorophenyl)-methyl]-amino]-5-oxo-4-[[(1H-indol-2-yl)-carbonyl]-amino]-pentanoic acid], for which the results for the pIC50 in assay [1] and in assay [2] were 5.00 and 7.02, respectively.

`COc1ccccc1C(NC(=O)[C@H](CCC(=O)O)NC(=O)c1cc2ccccc2[nH]1)c1ccccc1` (stereo partly drawn) [Example 9, (4S)-4-[[(1H-indol-2-yl)-carbonyl]-amino]-5-[[(2-methoxyphenyl)-benzyl]-amino]-5-oxo pentanoic acid]: the figures for the pIC50 in assay [1] and in assay [2] were 6.17 and 7.49, respectively. Also, the “reduction of alimentary consumption relative to control animals” value in assay [3] is reported as “more than 50%”.

Turning to `O=C(O)CC[C@H](NC(=O)c1cc2ccccc2[nH]1)C(=O)NC1c2ccccc2CCc2ccccc21` [Example 13, (S)-5-[(10,11-dihydro-dibenzo-[a,d]-cyclohepten-5-yl)-amino]-4-[[(1H-indol-2-yl)-carbonyl]-amino]-5-oxo pentanoic acid], the pIC50 in assay [1] is 5.58; in assay [2], 5.78.
